Laboratory results: PubChem BioAssay (NCI)
Where “and” joins values, the source holds several entries; their conditions need not be identical. Identical values can stand only once.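 Tested at 5 concentrations; 48 h exposure; 96-well plates; endpoints linearly interpolated, else capped at highest concentration. The concentration for 50% growth inhibition is given as GI50. TGI: total growth inhibition.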

Experiments:
Assay in all cases: NCI anticancer screen, dose series, 48 h
COLO 205 colon = tested on: COLO 205 colon
HCT-116 colon = tested on: HCT-116 colon
UO-31 renal = tested on: UO-31 renal
HOP-62 NSCLC = tested on: HOP-62 NSCLC
ACHN renal = tested on: ACHN renal
MOLT-4 leukemia = tested on: MOLT-4 leukemia
A498 renal = tested on: A498 renal
SK-OV-3 ovarian = tested on: SK-OV-3 ovarian
MCF7 breast = tested on: MCF7 breast

N.N.N.O=[N+]([O-])[O-].O=[N+]([O-])[O-].O=[N+]([O-])[O-].O=[N+]([O-])[O-].[Co+3]
TGI (COLO 205 colon): > 100 µM | TGI (HCT-116 colon): > 100 µM | TGI (UO-31 renal): > 100 µM | TGI (HOP-62 NSCLC): > 100 µM | TGI (ACHN renal): > 100 µM | TGI (MOLT-4 leukemia): > 100 µM | TGI (A498 renal): > 100 µM | TGI (SK-OV-3 ovarian): > 100 µM

C=C(C(=O)C(=O)Oc1ccc(Cl)cc1)C(=O)c1ccc(C)cc1
TGI (COLO 205 colon): > 100 µM | TGI (HCT-116 colon): 30.3 µM | TGI (UO-31 renal): > 100 µM | TGI (HOP-62 NSCLC): > 100 µM | TGI (ACHN renal): > 100 µM | TGI (MOLT-4 leukemia): > 100 µM | TGI (A498 renal): > 100 µM | TGI (SK-OV-3 ovarian): > 100 µM

CC1=C(O)C(=O)[C@@H]2O[C@@H]2C1=O
TGI (COLO 205 colon): 16 µM | TGI (HCT-116 colon): 27.8 µM | TGI (UO-31 renal): 54.1 µM | TGI (HOP-62 NSCLC): 100 µM | TGI (MOLT-4 leukemia): 10.9 µM | TGI (A498 renal): 17.1 µM | TGI (SK-OV-3 ovarian): 107 µM | TGI (MCF7 breast): 31.7 µM

O=C(/C=C/c1ccc(O)c([N+](=O)[O-])c1)CC(=O)/C=C/c1ccc(O)c([N+](=O)[O-])c1
TGI (COLO 205 colon): > 100 µM | TGI (HCT-116 colon): > 100 µM | TGI (UO-31 renal): > 100 µM | TGI (HOP-62 NSCLC): > 100 µM | TGI (ACHN renal): > 100 µM | TGI (SK-OV-3 ovarian): > 100 µM | TGI (MCF7 breast): > 100 µM

Cc1ccc(-c2c(C#N)c(-c3ccccc3)n(NS(=O)(=O)c3ccccc3)c(=O)c2C#N)cc1
TGI (COLO 205 colon): > 100 µM | TGI (HCT-116 colon): > 100 µM | TGI (HOP-62 NSCLC): > 100 µM | TGI (ACHN renal): > 100 µM | TGI (MOLT-4 leukemia): 72.6 µM | TGI (A498 renal): > 100 µM | TGI (SK-OV-3 ovarian): > 100 µM | TGI (MCF7 breast): > 100 µM

C#CCCCCC#Cc1ccccc1C(=O)OC
TGI (COLO 205 colon): > 100 µM | TGI (HCT-116 colon): 23 µM | TGI (UO-31 renal): > 100 µM | TGI (HOP-62 NSCLC): > 100 µM | TGI (ACHN renal): > 100 µM | TGI (MOLT-4 leukemia): 38.3 µM | TGI (A498 renal): > 100 µM | TGI (SK-OV-3 ovarian): > 100 µM

COc1ccc(C(C#N)NNC(=O)c2ccccc2O)cc1OC (stereo not given)
TGI (COLO 205 colon): > 100 µM | TGI (HCT-116 colon): > 100 µM | TGI (UO-31 renal): 2.2 µM | TGI (HOP-62 NSCLC): > 100 µM | TGI (ACHN renal): 96.6 µM | TGI (MOLT-4 leukemia): > 100 µM | TGI (SK-OV-3 ovarian): > 100 µM

CCOP(=O)(OCC)/C(C#N)=C/c1cnc(-c2ccccc2)[nH]1
TGI (COLO 205 colon): > 100 µM | TGI (HCT-116 colon): > 100 µM | TGI (UO-31 renal): > 100 µM | TGI (HOP-62 NSCLC): > 100 µM | TGI (ACHN renal): > 100 µM | TGI (MOLT-4 leukemia): > 100 µM | TGI (A498 renal): > 100 µM | TGI (SK-OV-3 ovarian): > 100 µM | TGI (MCF7 breast): > 100 µM

O=c1[nH]n2c(=O)cc[nH]c2c1-c1nnns1
TGI (COLO 205 colon): > 100 µM | TGI (HCT-116 colon): > 100 µM | TGI (UO-31 renal): > 100 µM | TGI (HOP-62 NSCLC): > 100 µM | TGI (ACHN renal): > 100 µM | TGI (MOLT-4 leukemia): > 100 µM | TGI (A498 renal): > 100 µM | TGI (SK-OV-3 ovarian): > 100 µM

S=C(N/N=C\C=N/NC(=S)N1CCCCC1)N1CCCCC1
TGI (COLO 205 colon): > 100 µM | TGI (HCT-116 colon): > 100 µM | TGI (UO-31 renal): > 63.1 µM | TGI (HOP-62 NSCLC): > 21.1 µM | TGI (A498 renal): > 100 µM | TGI (SK-OV-3 ovarian): > 100 µM | TGI (MCF7 breast): > 100 µM

C/C(CCOC1CCCCO1)=C(\C)[Si](C)(C)C (stereo not given)
TGI (COLO 205 colon): > 100 µM | TGI (HCT-116 colon): > 100 µM | TGI (UO-31 renal): > 100 µM | TGI (ACHN renal): > 100 µM | TGI (MOLT-4 leukemia): > 100 µM | TGI (A498 renal): > 100 µM

CC1(C)CC(/C=C2/OC(=O)c3ccccc32)=C(C#N)C(=O)O1
TGI (COLO 205 colon): > 100 µM | TGI (HCT-116 colon): > 100 µM | TGI (UO-31 renal): > 100 µM | TGI (HOP-62 NSCLC): > 100 µM | TGI (ACHN renal): > 100 µM | TGI (MOLT-4 leukemia): > 100 µM | TGI (SK-OV-3 ovarian): > 100 µM

CCOC(=O)CNC(=O)C(CSCc1ccc(Br)cc1)NC(=O)CCC(N)C(=O)OCC (stereo not given)
TGI (COLO 205 colon): > 50 µM | TGI (HCT-116 colon): > 50 µM | TGI (UO-31 renal): > 50 µM | TGI (HOP-62 NSCLC): > 50 µM | TGI (ACHN renal): > 50 µM | TGI (MOLT-4 leukemia): > 50 µM | TGI (SK-OV-3 ovarian): > 50 µM | TGI (MCF7 breast): > 50 µM

CC(=O)OCC1OC(OC(C)(C)CC/C=C(\C)[C@@H]2C/C=C(\C)CC/C=C(\C)CC2)C(O)C(O)C1OC(C)=O (stereo not given in full)
GI50 (COLO 205 colon): 35.7 µM and 15.8 µM | TGI (COLO 205 colon): 76.9 µM and 32.5 µM | TGI (HCT-116 colon): > 60.1 µM and 60.9 µM | GI50 (UO-31 renal): 53.4 µM and 12.7 µM | TGI (UO-31 renal): > 100 µM and 25.6 µM | GI50 (HOP-62 NSCLC): > 82.7 µM and 16.8 µM | TGI (HOP-62 NSCLC): > 100 µM and 30.4 µM | GI50 (ACHN renal): > 65.1 µM and 13.8 µM | TGI (ACHN renal): > 100 µM and 26.7 µM | TGI (MOLT-4 leukemia): 49.1 µM | GI50 (A498 renal): > 100 µM and 24.4 µM | TGI (A498 renal): > 100 µM and 44.8 µM | GI50 (SK-OV-3 ovarian): > 100 µM and 18.5 µM | TGI (SK-OV-3 ovarian): > 100 µM and 34 µM | GI50 (MCF7 breast): 52 µM and 23.9 µM | TGI (MCF7 breast): > 100 µM and 64.8 µM

COCCOCOc1ccc(OCc2ccccc2)cc1
TGI (COLO 205 colon): > 100 µM | TGI (HCT-116 colon): > 100 µM | TGI (UO-31 renal): > 100 µM | TGI (HOP-62 NSCLC): > 100 µM | TGI (MOLT-4 leukemia): > 100 µM | TGI (A498 renal): 99.5 µM | TGI (SK-OV-3 ovarian): > 100 µM | TGI (MCF7 breast): > 51.4 µM

OCc1ccc2[n+](c1)CCC1c3ccccc3NC21 (stereo not given)
TGI (COLO 205 colon): > 300 µM | TGI (HCT-116 colon): > 300 µM | TGI (HOP-62 NSCLC): > 300 µM | TGI (ACHN renal): > 300 µM | TGI (MOLT-4 leukemia): > 300 µM | TGI (SK-OV-3 ovarian): > 300 µM

Nc1nc2cc3nc(N)c(N)nc3cc2nc1N
TGI (COLO 205 colon): > 100 µM | TGI (HCT-116 colon): > 100 µM | TGI (UO-31 renal): > 100 µM | TGI (ACHN renal): > 100 µM | TGI (MOLT-4 leukemia): > 100 µM | TGI (A498 renal): > 100 µM | TGI (SK-OV-3 ovarian): > 100 µM | TGI (MCF7 breast): > 100 µM

COC(=O)C(CCC#N)(CCC#N)C(=O)OC
TGI (COLO 205 colon): > 100 µM | TGI (HCT-116 colon): > 100 µM | TGI (UO-31 renal): > 100 µM | TGI (HOP-62 NSCLC): > 100 µM | TGI (ACHN renal): > 100 µM | TGI (MOLT-4 leukemia): > 100 µM | TGI (SK-OV-3 ovarian): > 100 µM

CCN1CC2=C(NC(=S)NC2c2ccc(Cl)cc2)/C(=C/c2ccc(Cl)cc2)C1 (stereo not given)
TGI (COLO 205 colon): > 100 µM | TGI (HCT-116 colon): > 100 µM | TGI (UO-31 renal): > 100 µM | TGI (HOP-62 NSCLC): > 100 µM | TGI (ACHN renal): > 100 µM | TGI (MOLT-4 leukemia): 79.2 µM | TGI (A498 renal): 62.1 µM | TGI (SK-OV-3 ovarian): > 100 µM | TGI (MCF7 breast): > 100 µM

CCOC(=O)C1Cc2[nH]c3ccccc3c2C(C)C1C (stereo not given)
TGI (COLO 205 colon): 32.6 µM | TGI (HCT-116 colon): 32.6 µM | TGI (UO-31 renal): 35.8 µM | TGI (ACHN renal): 39.8 µM | TGI (MOLT-4 leukemia): 42 µM | TGI (A498 renal): 34.4 µM | TGI (SK-OV-3 ovarian): 45.3 µM
